Target: T1, USP28 (USP28-5(1-1077)-TEV-6*His; LifeSensors) (Homo sapiens, UniProt Q96RU2)
T1 construct: construct USP28 (USP28-5(1-1077)-TEV-6*His; LifeSensors); TEV cleavage site (C); 6xHis (C); purchased LifeSensors
T1 sequence (Q96RU2 1-1077): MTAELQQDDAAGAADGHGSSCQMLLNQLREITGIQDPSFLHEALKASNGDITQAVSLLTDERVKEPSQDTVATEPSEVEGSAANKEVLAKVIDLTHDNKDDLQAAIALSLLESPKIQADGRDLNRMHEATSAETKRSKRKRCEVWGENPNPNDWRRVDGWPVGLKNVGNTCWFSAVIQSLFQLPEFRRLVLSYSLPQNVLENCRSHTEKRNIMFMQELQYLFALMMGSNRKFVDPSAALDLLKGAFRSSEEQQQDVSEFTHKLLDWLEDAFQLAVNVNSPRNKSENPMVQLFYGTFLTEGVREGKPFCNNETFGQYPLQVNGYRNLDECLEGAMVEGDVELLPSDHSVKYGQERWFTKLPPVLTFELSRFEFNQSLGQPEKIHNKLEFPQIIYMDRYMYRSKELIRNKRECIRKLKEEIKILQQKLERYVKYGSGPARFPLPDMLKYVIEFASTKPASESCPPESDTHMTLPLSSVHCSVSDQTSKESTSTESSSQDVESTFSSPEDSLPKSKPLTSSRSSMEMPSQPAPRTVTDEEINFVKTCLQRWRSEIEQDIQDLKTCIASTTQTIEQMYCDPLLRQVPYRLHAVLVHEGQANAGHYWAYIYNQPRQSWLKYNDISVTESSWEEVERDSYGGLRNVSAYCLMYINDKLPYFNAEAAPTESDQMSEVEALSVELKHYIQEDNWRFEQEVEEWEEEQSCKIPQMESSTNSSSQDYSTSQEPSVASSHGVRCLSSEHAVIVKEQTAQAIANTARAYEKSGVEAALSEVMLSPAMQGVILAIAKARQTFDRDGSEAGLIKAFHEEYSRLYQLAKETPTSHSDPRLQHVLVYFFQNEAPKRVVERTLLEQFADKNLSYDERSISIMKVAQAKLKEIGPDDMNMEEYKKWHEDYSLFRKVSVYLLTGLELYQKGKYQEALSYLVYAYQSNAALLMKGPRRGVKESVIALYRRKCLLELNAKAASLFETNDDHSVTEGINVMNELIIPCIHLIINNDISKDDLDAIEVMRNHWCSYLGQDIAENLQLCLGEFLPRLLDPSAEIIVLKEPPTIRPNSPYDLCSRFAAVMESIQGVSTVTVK
Assay: Ubiquitin-Rhodamine 110 Assay for USP28 Activity, Example A-1(b)
Format: biochemical
Protocol: Example A-1(b): Biochemical Assay: Ubiquitin-Rhodamine 110 Assay for USP28 Activity
Each assay was performed in a final volume of 20 μL in assay buffer containing 20 mM Tris-HCl (pH 8.0, (1M Tris-HCl, pH 8.0 solution; Corning 46-031-CM)), 2 mM CaCl2 (1M Calcium Chloride solution; Sigma #21114) 2 mM BME (2-Mercaptoethanol; Sigma 63689-25ML-F), 0.01% Prionex (0.22 μM filtered, Sigma #G-0411), and 0.01% Triton X-100. Stock compound solutions were stored at −20° C. as 10 mM in DMSO. Up to 1 month prior to the assay, 2 mM test compounds were pre-dispensed into assay plates (Black, low volume; Corning #3820) and frozen at −20° C. Prestamped assay plates were allowed to come to room temperature on the day of the assay. For the screen, 100 nL of 2 mM was pre-dispensed for a final screening concentration of 10 μM (DMSO(fc)=0.5%). […] Plates were incubated stacked for 90 minutes at room temperature before fluorescence was read on the Envision (Excitation at 485 nm and Emission at 535 nm; Perkin Elmer) or on the PheraSTAR (Excitation at 485 nm and Emission at 535 nm; BMG Labtech).
For follow-up studies, each assay was performed in a final volume of 15 μL in assay buffer containing 20 mM Tris-HCl (pH 8.0, (1M Tris-HCl, pH 8.0 solution; Corning 46-031-CM)), 3 mM BME (2-Mercaptoethanol; Sigma 63689-25ML-F), 0.03% BGG (0.22 μM filtered, Sigma, G7516-25G), and 0.01% Triton X-100 (Sigma, T9284-10L). Nanoliter quantities of either an 8-point or 10-point, 3-fold serial dilution in DMSO was pre-dispensed into assay plates (Perkin Elmer, ProxiPlate-384 F Plus, #) for a final test concentration of either 25 μM to 11 nM or 25 μM to 1.3 nM, respectively. Enzyme USP28, construct USP28 (USP28-5(1-1077)-TEV-6*His; LifeSensors) concentration and incubation times were optimized for the maximal signal-to-background while maintaining initial velocity conditions at a fixed substrate concentration. The final concentration of the enzyme in the assay was […]. Final substrate (Ub-Rh110; Ubiquitin-Rhodamine 110, R&D Systems #U-555) concentration was 25 nM with [Ub-Rh110]<<Km. 5 μL of 2× enzyme was added to assay plates (pre-stamped with compound) preincubated with USP28 for 30 minutes and then 5 μL of 2× Ub-Rh110 was added to assay plates. Plates were incubated stacked for 20 minutes at room temperature before 5 μL of stop solution was added (final concentration of 10 mM citric acid (Sigma, 251275-500G)). Fluorescence was read on the Envision (Excitation at 485 nm and Emission at 535 nm; Perkin Elmer) or on the PheraSTAR (Excitation at 485 nm and Emission at 535 nm; BMG Labtech).
For assay formats Example A-1(a), A-1(b), and A-2, data were reported as percent inhibition compared with control wells based on the following equation: % inh=1−((FLU−AveLow)/(AveHigh−AveLow)) where FLU=measured Fluorescence, AveLow=average Fluorescence of no enzyme control (n=16), and AveHighh=average Fluorescence of DMSO control (n=16). IC50 values were determined by curve fitting of the standard 4 parameter logistic fitting algorithm included in the Activity Base software package: IDBS XE Designer Model 205. Data is fitted using the Levenburg Marquardt algorithm.

For `Cc1ccc2c(N)c(C(=O)N[C@H]3COc4cc(N5CCNCC5)ccc4[C@H]3C)sc2n1` (single isomer, unassigned) [Example 11-15], which “USP28 A-1(b) IC50 range” value is on record?
The value was “+ (“+”L>2 μM)”.

How did the “USP28 A-1(b) IC50 range” value turn out when `Cc1ccc2c(N)c(C(=O)N[C@H]3COc4cc(N5CCNCC5)ccc4[C@@H]3C)sc2n1` (single isomer, unassigned) [Example 11-16] was run?
The value was “+ (“+”L>2 μM)”.

`Cc1ccc2c(N)c(C(=O)N[C@H]3COc4cc(N5CCNCC5)ccc4[C@@H]3C)sc2n1` (single isomer, unassigned) [Example 11-17] was tested. Which “USP28 A-1(b) IC50 range” value did it give?
Its value is “+ (“+”L>2 μM)”.

With `Cc1ccc2c(N)c(C(=O)N[C@@H]3COc4cc(N5CCNCC5)ccc4[C@@H]3C)sc2n1` (single isomer, unassigned) [Example 11-18] as the compound, how does the “USP28 A-1(b) IC50 range” value read?
The value was “+ (“+”L>2 μM)”.

`Cc1cnc2c(N)c(C(=O)N[C@H]3CCc4cc(N5CCNCC5)ccc4C3)sc2n1` (single isomer, unassigned) [Example 11-19] was tested. Which “USP28 A-1(b) IC50 range” value did it give?
Its value is “++ (“++”: 0.2-2 μM)”.

Which “USP28 A-1(b) IC50 range” value does the source give for `Cc1cnc2c(N)c(C(=O)N[C@@H]3CCc4cc(N5CCNCC5)ccc4C3)sc2n1` (single isomer, unassigned) [Example 11-20] here?
The value was “+ (“+”L>2 μM)”.

For `Cc1ccc2c(N)c(C(=O)N[C@H]3CCc4cc(N5CCNCC5)ccc4C3)sc2n1` (single isomer, unassigned) [Example 11-21], which “USP28 A-1(b) IC50 range” value is on record?
The value was “++ (“++”: 0.2-2 μM)”.

Which “USP28 A-1(b) IC50 range” value does the source give for `Cc1ccc2c(N)c(C(=O)N[C@@H]3CCc4cc(N5CCNCC5)ccc4C3)sc2n1` (single isomer, unassigned) [Example 11-22] here?
The value was “++ (“++”: 0.2-2 μM)”.

With `CN[C@H]1CCN(c2ccc3c(c2)CC[C@H](NC(=O)c2sc4nc(C)cnc4c2N)C3)C1` (single isomer, unassigned) [Example 11-25] as the compound, how does the “USP28 A-1(b) IC50 range” value read?
Its value is “++ (“++”: 0.2-2 μM)”.

How did the “USP28 A-1(b) IC50 range” value turn out when `CN[C@H]1CCN(c2ccc3c(c2)CC[C@@H](NC(=O)c2sc4nc(C)cnc4c2N)C3)C1` (single isomer, unassigned) [Example 11-26] was run?
Its value is “+ (“+”L>2 μM)”.

How did the “USP28 A-1(b) IC50 range” value turn out when `CN[C@@H]1CCN(c2ccc3c(c2)CC[C@H](NC(=O)c2sc4nc(C)cnc4c2N)C3)C1` (single isomer, unassigned) [Example 11-27] was run?
Its value is “++ (“++”: 0.2-2 μM)”.

`CN[C@@H]1CCN(c2ccc3c(c2)CC[C@@H](NC(=O)c2sc4nc(C)cnc4c2N)C3)C1` (single isomer, unassigned) [Example 11-28] was tested. Which “USP28 A-1(b) IC50 range” value did it give?
Its value is “+ (“+”L>2 μM)”.

`Cc1cnc2c(N)c(C(=O)N[C@H]3CCc4cc(N5C[C@@H]6C[C@H]5CN6)ccc4C3)sc2n1` (single isomer, unassigned) [Example 11-29] was tested. Which “USP28 A-1(b) IC50 range” value did it give?
Its value is “++ (“++”: 0.2-2 μM)”.

For `Cc1cnc2c(N)c(C(=O)N[C@@H]3CCc4cc(N5C[C@@H]6C[C@H]5CN6)ccc4C3)sc2n1` (single isomer, unassigned) [Example 11-30], which “USP28 A-1(b) IC50 range” value is on record?
The value was “++ (“++”: 0.2-2 μM)”.

`Cc1cnc2c(N)c(C(=O)N[C@H]3CCc4cc(N5C[C@H]6C[C@@H]5CN6)ccc4C3)sc2n1` (single isomer, unassigned) [Example 11-31] was tested. Which “USP28 A-1(b) IC50 range” value did it give?
The value was “++ (“++”: 0.2-2 μM)”.

For `Cc1cnc2c(N)c(C(=O)N[C@@H]3CCc4cc(N5C[C@H]6C[C@@H]5CN6)ccc4C3)sc2n1` (single isomer, unassigned) [Example 11-32], which “USP28 A-1(b) IC50 range” value is on record?
Its value is “++ (“++”: 0.2-2 μM)”.

For `Cc1nc2sc(C(=O)N[C@H]3CCc4cc(N5CCNCC5)ccc4C3)c(N)c2s1` (single isomer, unassigned) [Example 11-33], which “USP28 A-1(b) IC50 range” value is on record?
The value was “+ (“+”L>2 μM)”.

With `Cc1nc2sc(C(=O)N[C@@H]3CCc4cc(N5CCNCC5)ccc4C3)c(N)c2s1` (single isomer, unassigned) [Example 11-34] as the compound, how does the “USP28 A-1(b) IC50 range” value read?
Its value is “++ (“++”: 0.2-2 μM)”.

`Cc1cnc2c(N)c(C(=O)N[C@@H]3CCc4cc(N5CCNCC5)cc(F)c4C3)sc2n1` (single isomer, unassigned) [Example 11-37] was tested. Which “USP28 A-1(b) IC50 range” value did it give?
Its value is “+ (“+”L>2 μM)”.

For `Cc1cnc2c(N)c(C(=O)N[C@H]3CCc4cc(N5CCNCC5)cc(F)c4C3)sc2n1` (single isomer, unassigned) [Example 11-38], which “USP28 A-1(b) IC50 range” value is on record?
Its value is “+++ (“+++”: 0.05-0.2 μM)”.

How did the “USP28 A-1(b) IC50 range” value turn out when `Cc1ccc2c(N)c(C(=O)N[C@H]3CCc4cc(N5CC6CNCC(C5)O6)cc(F)c4C3)sc2n1` (single isomer, unassigned) [Example 11-39] was run?
The value was “++ (“++”: 0.2-2 μM)”.

With `Cc1ccc2c(N)c(C(=O)N[C@@H]3CCc4cc(N5CC6CNCC(C5)O6)cc(F)c4C3)sc2n1` (single isomer, unassigned) [Example 11-40] as the compound, how does the “USP28 A-1(b) IC50 range” value read?
Its value is “++++ (“++++”: 0.001-0.05 μM)”.

With `Cc1ccc2c(N)c(C(=O)N[C@@H]3CCc4c(C#N)c(N5CCNCC5)cc(F)c4C3)sc2n1` (single isomer, unassigned) [Example 14-9] as the compound, how does the “USP28 A-1(b) IC50 range” value read?
The value was “+ (“+”L>2 μM)”.

`Cc1ccc2c(N)c(C(=O)N[C@H]3CCc4c(C#N)c(N5CCNCC5)cc(F)c4C3)sc2n1` (single isomer, unassigned) [Example 14-10] was tested. Which “USP28 A-1(b) IC50 range” value did it give?
The value was “+++ (“+++”: 0.05-0.2 μM)”.

With `Cc1cnc2c(N)c(C(=O)N[C@@H]3CCc4c(ccc(N5CCNCC5)c4F)C3)sc2n1` (single isomer, unassigned) [Example 21-9] as the compound, how does the “USP28 A-1(b) IC50 range” value read?
Its value is “++ (“++”: 0.2-2 μM)”.

Which “USP28 A-1(b) IC50 range” value does the source give for `Cc1cnc2c(N)c(C(=O)N[C@H]3CCc4c(ccc(N5CCNCC5)c4F)C3)sc2n1` (single isomer, unassigned) [Example 21-10] here?
The value was “+ (“+”L>2 μM)”.

Which “USP28 A-1(b) IC50 range” value does the source give for `Cc1cnc2c(N)c(C(=O)N[C@@H]3CCc4cc(N5CCNCC5)c(F)cc4C3)sc2n1` (single isomer, unassigned) [Example 21-11] here?
The value was “++ (“++”: 0.2-2 μM)”.

With `Cc1cnc2c(N)c(C(=O)N[C@H]3CCc4cc(N5CCNCC5)c(F)cc4C3)sc2n1` (single isomer, unassigned) [Example 21-12] as the compound, how does the “USP28 A-1(b) IC50 range” value read?
The value was “++++ (“++++”: 0.001-0.05 μM)”.
